Source: ChEMBL document CHEMBL1201862, “PubChem BioAssay data set” (2004)
The source made the active and inactive calls.

Columns and labels:
[1] = molecular target: Glucose-6-phosphate 1-dehydrogenase (Homo sapiens, UniProt P11413); assay: inhibition of Homo sapiens G6PD, dose series – biochemical, fluorescence, selectivity assay for P. falciparum G6PD inhibitor project, dose response (AID 504792); format: functional
Coagulation factor XII = molecular target: T1, Coagulation factor XII (Homo sapiens, UniProt P00748); format: functional;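 note: activated factor XIIa alpha cleaving a fluorogenic AMC peptide substrate; inhibitor potency from loss of enzyme activity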
T1 sequence (P00748 whole entry): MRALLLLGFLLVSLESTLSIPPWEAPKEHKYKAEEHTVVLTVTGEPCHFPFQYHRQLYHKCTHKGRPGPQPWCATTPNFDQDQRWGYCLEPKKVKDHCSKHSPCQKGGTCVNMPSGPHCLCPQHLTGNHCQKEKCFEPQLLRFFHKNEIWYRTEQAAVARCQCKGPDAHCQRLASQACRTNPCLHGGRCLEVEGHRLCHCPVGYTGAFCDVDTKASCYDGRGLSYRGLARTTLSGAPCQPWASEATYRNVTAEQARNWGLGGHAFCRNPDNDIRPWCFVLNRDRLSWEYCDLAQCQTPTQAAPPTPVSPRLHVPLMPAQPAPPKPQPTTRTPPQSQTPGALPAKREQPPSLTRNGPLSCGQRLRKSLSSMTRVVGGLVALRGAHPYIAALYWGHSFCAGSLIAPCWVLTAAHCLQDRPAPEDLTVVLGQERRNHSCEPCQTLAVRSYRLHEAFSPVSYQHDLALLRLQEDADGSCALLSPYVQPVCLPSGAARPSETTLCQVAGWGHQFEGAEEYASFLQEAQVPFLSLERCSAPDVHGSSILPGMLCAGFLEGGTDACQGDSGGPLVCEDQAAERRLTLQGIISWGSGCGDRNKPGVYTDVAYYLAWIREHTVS

Beta-galactosidase [2] = molecular target: T2, Beta-galactosidase (Escherichia coli, UniProt Q8VNN2); assay: PubChem AID 485352; format: functional
T2 sequence (Q8VNN2 whole entry): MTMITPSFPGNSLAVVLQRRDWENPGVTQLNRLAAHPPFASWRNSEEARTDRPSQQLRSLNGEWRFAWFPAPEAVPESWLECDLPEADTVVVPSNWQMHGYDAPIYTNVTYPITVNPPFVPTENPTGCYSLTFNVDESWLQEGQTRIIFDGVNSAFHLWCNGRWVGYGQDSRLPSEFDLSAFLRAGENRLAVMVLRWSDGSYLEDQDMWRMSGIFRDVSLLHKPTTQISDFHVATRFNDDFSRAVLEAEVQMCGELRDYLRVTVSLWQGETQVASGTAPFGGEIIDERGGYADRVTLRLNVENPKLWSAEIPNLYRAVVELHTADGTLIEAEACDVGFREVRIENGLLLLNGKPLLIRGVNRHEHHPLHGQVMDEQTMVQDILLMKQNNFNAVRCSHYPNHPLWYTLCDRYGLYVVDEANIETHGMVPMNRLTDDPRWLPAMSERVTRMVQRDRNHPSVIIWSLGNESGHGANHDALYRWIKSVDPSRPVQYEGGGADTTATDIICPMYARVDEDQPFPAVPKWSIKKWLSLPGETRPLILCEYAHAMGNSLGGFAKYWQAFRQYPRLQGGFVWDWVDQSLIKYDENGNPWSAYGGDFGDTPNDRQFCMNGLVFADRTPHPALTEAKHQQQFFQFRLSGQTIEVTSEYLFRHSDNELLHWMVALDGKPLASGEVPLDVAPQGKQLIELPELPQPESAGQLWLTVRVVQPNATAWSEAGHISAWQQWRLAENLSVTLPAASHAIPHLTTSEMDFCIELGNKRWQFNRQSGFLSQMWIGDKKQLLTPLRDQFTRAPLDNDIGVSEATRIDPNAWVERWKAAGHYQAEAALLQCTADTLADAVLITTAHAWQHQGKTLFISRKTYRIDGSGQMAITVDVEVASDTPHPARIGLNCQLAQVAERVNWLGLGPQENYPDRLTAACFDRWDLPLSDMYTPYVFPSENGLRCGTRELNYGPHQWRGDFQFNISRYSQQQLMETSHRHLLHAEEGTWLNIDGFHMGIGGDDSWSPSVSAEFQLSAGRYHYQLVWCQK

[3] = molecular target: T3, Type-1 angiotensin II receptor (Homo sapiens, UniProt P30556); assay: antagonism of angiotensin II type 1 receptor – cell-based, uHTS hits, selectivity assay for APJ receptor antagonist project, dose response (AID 463214); format: functional;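 note: antagonist potency against angiotensin II stimulated AT1 response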
T3 sequence (P30556 whole entry): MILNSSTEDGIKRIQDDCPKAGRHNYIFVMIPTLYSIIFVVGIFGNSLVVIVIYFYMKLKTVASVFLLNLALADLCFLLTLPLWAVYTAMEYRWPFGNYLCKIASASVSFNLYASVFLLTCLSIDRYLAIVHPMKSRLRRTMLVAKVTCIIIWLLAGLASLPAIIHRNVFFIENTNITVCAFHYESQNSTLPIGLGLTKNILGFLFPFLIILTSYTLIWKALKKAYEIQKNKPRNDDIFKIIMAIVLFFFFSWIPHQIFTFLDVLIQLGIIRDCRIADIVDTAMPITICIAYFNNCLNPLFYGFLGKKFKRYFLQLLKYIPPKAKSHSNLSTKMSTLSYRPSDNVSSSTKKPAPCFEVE

Phospholipase A2 = Phospholipase A2 (Homo sapiens, UniProt P04054); format: functional;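 note: confirmatory dose-response counterscreen on phospholipase A2, testing hits that came from an ultra-high-throughput screen for ATG4B inhibitors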
Sequence of Phospholipase A2 (P04054 whole entry): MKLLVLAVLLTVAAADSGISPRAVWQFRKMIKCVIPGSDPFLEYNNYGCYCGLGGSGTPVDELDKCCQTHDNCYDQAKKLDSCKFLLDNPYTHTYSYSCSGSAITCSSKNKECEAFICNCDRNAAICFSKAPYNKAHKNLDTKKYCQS

Cysteine protease ATG4B = molecular target: T4, Cysteine protease ATG4B (Homo sapiens, UniProt Q9Y4P1); format: functional;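 note: Fluorescence-based dose-response confirmation assay measuring inhibition of ATG4B activity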
T4 sequence (Q9Y4P1 whole entry): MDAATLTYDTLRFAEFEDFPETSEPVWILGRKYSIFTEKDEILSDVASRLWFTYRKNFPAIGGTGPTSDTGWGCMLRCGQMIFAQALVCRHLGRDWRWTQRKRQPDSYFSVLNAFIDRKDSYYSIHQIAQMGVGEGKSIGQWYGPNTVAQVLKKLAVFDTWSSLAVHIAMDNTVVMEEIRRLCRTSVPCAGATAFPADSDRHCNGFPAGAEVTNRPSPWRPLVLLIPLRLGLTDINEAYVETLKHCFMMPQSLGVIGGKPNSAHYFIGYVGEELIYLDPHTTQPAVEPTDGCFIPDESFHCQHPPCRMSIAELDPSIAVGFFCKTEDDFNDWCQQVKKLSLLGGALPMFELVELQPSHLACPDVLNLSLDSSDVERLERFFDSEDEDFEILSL

cells [4] = format: functional, cell-based
cells [5] = format: functional, cell-based; remark: listed apart in the source
[6] = non-specific 3'UTR reporter inhibition in Clone20-Shn3RL – cell-based, Renilla luciferase, cherry-picked, counter-screen for Shn3 inhibitor project, dose response (AID 624133); format: functional
[7] = HIV-1 AD8 envelope cell-cell fusion blockers – cherry-pick, dose response (AID 652062); format: functional, cell-based;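 note: luciferase signal from cell-cell fusion driven by HIV-1 clade B AD8 Env; potency is for inhibitors of fusion seen as a drop in luminescence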
[8] = reduction of Shn3 3'UTR-driven luciferase in osteoblasts – cell-based, Clone20 osteoblasts, firefly luciferase, cherry-picked, dose response (AID 624132); format: functional;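 note: firefly luciferase luminescence from reporter carrying the Shn3 3'UTR in osteoblasts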
Protein Wnt-3a = Protein Wnt-3a (Mus musculus, UniProt P27467); assay: antagonism of Wnt3a pathway luciferase reporter – Wnt-LIGHT cells, luminescence, selectivity assay for Gli-SUFU antagonist project, dose response (AID 651570); format: functional; settings: read-out: IC50_Mean;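 note: Wnt-LIGHT reporter cells stimulated with conditioned medium from Wnt3a-producing cells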
Sequence of Protein Wnt-3a (P27467 whole entry): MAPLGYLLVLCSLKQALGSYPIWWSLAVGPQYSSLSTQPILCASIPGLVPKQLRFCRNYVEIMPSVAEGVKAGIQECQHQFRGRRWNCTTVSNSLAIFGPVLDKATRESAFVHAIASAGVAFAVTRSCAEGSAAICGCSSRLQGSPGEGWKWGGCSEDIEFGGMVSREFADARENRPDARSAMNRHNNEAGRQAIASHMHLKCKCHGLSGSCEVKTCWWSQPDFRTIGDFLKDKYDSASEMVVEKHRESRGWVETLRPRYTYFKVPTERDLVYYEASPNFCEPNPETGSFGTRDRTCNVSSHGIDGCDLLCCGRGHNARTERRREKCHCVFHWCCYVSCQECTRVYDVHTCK

[9] = loss of viability in HepG2 cells – cell-based, CellTiter-Glo, cherry-picked, cytotoxicity control for Shn3 inhibitor project, dose response (AID 624134); format: functional
INS1 = assay: INS-1E survival protection against cytokine death – cell-based, luminescence, retest, dose response (AID 449756); format: functional; settings: Rattus norvegicus;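 note: cell death triggered by IL-1 beta plus TNF-alpha plus IFN-gamma mixture; protective hits raise ATP signal compared with cytokine alone wells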
Genome polyprotein = Genome polyprotein (dengue virus type 2, UniProt P29990); assay: flavivirus cap methylation enzyme inhibition – biochemical, confirmation dose response, primary screen (AID 588689); format: functional
Sequence of Genome polyprotein (P29990 2492-3391 limits assumed): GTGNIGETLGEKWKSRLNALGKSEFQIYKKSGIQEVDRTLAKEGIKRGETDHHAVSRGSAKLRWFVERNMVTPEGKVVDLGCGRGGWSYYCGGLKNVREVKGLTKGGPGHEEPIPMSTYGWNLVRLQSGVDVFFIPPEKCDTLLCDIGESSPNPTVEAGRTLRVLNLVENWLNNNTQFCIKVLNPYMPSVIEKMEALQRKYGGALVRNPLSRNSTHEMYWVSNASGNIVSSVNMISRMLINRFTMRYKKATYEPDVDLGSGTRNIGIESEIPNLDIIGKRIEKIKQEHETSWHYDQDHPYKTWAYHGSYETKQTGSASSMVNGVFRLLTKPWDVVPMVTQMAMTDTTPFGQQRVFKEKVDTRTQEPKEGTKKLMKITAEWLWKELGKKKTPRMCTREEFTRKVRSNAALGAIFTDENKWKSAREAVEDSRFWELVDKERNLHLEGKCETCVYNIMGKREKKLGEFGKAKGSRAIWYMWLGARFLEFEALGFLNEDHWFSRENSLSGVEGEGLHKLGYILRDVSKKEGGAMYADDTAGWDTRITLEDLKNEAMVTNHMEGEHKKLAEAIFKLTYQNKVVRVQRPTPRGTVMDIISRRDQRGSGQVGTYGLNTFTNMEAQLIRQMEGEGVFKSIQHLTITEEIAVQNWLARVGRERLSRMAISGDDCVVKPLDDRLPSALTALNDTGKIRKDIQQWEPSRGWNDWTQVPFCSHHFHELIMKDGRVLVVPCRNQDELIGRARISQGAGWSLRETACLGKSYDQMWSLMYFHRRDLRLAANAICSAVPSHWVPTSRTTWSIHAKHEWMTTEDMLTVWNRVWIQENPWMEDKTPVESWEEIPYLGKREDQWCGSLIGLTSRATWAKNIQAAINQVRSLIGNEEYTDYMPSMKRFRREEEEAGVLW

[10] = molecular target: G-protein coupled receptor 55 (Homo sapiens, UniProt Q9Y2T6); assay: inhibition of LPI-stimulated GPR55 beta-arrestin translocation – imaging, U2OS, beta-arrestin-GFP, LPI agonist, primary screen (AID 2013); format: functional;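 note: antagonist potency measured as reduced agonist-driven arrestin aggregation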
Sequence of G-protein coupled receptor 55 (Q9Y2T6 whole entry): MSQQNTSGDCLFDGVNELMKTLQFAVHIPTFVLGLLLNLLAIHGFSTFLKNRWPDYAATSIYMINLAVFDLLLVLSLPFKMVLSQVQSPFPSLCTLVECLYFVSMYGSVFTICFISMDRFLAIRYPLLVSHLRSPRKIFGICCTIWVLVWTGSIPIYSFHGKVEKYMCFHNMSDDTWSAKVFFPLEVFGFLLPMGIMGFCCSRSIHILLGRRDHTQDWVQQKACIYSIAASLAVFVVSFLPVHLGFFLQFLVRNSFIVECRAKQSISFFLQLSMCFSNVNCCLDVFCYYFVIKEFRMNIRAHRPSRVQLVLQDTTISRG

[11] = viability of PTEN-deleted HCT116 cells – cell-based, HCT116 PTEN knockout, dose response (AID 1047); format: functional;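 note: HCT116 colon tumor cells with PTEN knocked out; cells exposed to compound for 60 hours before readout; potency for loss of cell viability measured by luminescence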
[12] = molecular target: T5, Microphthalmia-associated transcription factor (Homo sapiens, UniProt O75030); assay: reducers of TRPM1 reporter luminescence, concentration series – cell-based, SK-MEL-5, cherry-picked, set 3, MITF inhibitor project, dose response (AID 493073); format: functional;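 note: SK-MEL-5 melanoma cells with luciferase driven by the MITF target TRPM1 promoter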
T5 sequence (O75030 whole entry): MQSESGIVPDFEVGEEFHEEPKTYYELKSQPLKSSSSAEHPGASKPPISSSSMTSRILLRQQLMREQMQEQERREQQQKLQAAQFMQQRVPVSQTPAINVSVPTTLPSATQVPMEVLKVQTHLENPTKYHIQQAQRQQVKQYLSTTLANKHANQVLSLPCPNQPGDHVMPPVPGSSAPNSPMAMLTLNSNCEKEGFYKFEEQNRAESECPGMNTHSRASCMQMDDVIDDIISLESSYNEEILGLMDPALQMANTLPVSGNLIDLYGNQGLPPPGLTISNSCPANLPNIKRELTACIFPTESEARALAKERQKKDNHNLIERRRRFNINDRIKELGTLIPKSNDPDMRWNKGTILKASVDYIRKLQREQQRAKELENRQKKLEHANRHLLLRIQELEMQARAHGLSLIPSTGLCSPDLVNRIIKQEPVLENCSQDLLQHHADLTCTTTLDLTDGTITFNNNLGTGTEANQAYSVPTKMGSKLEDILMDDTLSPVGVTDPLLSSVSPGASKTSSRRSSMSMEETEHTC

[13] = HEK-293T viability loss after treatment – luminescence, T-cell screen hits, cytotoxicity control for TCR NF-kB inhibitor project, dose response (AID 489026); format: functional, cell-based;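 note: cells exposed to compound about 14 hours before the viability readout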
[14] = NIH3T3 cell viability loss – ATP luminescence, mouse fibroblasts, counter-screen, dose response (AID 2010); format: functional, cell-based;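 note: cells exposed to compound for about 90 hours before reading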
[15] = Trypanosoma cruzi growth suppression in host cells – NIH3T3 host cells, beta-gal luminescence, confirmation (AID 2044); format: functional, cell-based;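 note: intracellular parasites grown in NIH/3T3 mouse fibroblasts as host cells; luminescent beta-galactosidase reporter signal from transgenic T. cruzi replicating inside host cells; inhibitors lower the luminescence signal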
Beta-galactosidase [16] = molecular target: T2, Beta-galactosidase; assay: detection-enzyme interference by beta-gal modulators – biochemical, E. coli enzyme, set 3, artefact control for CCR6 antagonist project, dose response (AID 504712); format: functional
Protein skinhead-1 = molecular target: T6, Protein skinhead-1 (Caenorhabditis elegans, UniProt P34707); format: functional
T6 sequence (P34707 whole entry): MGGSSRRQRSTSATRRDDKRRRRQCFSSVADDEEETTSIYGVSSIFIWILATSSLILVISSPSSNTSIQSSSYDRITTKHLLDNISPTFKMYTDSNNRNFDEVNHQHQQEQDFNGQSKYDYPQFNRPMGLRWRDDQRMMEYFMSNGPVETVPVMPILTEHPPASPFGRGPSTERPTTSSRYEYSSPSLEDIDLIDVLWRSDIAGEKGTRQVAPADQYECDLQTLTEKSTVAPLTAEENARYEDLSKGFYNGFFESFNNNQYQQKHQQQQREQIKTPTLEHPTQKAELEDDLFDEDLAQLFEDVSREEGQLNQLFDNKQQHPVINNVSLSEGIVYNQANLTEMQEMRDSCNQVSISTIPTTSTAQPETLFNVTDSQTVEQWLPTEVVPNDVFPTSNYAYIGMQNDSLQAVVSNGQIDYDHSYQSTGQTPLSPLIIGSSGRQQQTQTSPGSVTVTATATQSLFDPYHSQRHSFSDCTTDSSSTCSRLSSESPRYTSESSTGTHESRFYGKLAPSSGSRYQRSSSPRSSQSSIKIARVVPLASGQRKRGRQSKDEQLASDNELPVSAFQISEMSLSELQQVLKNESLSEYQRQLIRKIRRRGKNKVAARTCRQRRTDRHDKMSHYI

Large T antigen = Large T antigen (Simian virus 40, UniProt P03070); format: functional, Betapolyomavirus macacae;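 note: Confirmatory-stage PubChem screen for compounds that inhibit SV40 T antigen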
Sequence of Large T antigen (P03070 whole entry): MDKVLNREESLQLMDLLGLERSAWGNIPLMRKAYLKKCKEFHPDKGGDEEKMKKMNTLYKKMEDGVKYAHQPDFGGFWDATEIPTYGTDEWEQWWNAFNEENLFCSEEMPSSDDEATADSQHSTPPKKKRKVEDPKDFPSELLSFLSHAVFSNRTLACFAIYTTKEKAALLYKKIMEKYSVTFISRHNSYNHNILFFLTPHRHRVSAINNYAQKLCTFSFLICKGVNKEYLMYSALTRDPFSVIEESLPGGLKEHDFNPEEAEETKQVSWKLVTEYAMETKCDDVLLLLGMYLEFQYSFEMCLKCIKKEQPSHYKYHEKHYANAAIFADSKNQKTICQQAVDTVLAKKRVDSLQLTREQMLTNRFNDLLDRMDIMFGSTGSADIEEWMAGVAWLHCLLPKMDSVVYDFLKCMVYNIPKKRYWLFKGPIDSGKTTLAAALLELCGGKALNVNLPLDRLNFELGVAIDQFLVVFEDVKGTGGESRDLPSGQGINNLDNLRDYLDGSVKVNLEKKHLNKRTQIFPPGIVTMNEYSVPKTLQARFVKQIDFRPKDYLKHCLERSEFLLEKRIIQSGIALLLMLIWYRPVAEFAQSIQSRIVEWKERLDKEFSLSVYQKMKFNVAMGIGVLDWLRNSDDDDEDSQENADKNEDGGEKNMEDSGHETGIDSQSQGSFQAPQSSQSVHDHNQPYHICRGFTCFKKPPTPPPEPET

[17] = molecular target: DNA dC->dU-editing enzyme APOBEC-3G (Homo sapiens, UniProt Q9HC16); assay: Dose Response confirmation of small molecule APOBEC3G DNA Deaminase Inhibitors via a fluorescence-based single-stranded DNA deaminase assay. [Related pubchem assays (depositor defined):AID493012, AID493028]; format: functional
Sequence of DNA dC->dU-editing enzyme APOBEC-3G (Q9HC16 whole entry): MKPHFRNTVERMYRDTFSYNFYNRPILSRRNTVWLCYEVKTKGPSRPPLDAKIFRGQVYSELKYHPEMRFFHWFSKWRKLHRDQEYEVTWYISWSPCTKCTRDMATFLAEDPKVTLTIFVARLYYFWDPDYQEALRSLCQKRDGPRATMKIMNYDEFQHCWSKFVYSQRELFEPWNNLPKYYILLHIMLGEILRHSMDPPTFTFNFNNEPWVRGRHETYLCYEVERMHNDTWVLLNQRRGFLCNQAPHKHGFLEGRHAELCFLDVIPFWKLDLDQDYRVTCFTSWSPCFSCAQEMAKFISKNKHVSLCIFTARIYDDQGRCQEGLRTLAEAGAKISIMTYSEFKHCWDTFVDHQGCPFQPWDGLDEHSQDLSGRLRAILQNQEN

[18] = viability of HCT116 lacking mutant beta-catenin – cell-based, human colon tumor, dose response (AID 1045); format: functional;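 note: HCT116 colon tumor cells with beta catenin knocked out; cells exposed to compound for 60 hours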
Prothrombin = Prothrombin (Homo sapiens, UniProt P00734); assay: Thrombin 1536 HTS Dose Response Confirmation. [Related pubchem assays: 1046 (Thrombin 1536 HTS; hits were confirmed in this assay)]; format: functional
[19] = molecular target: NAD-dependent protein deacylase sirtuin-5, mitochondrial (Homo sapiens, UniProt Q9NXA8); assay: sirtuin-5 deacylation blockers, concentration series – biochemical, fluorescence imaging, cherry-pick, set 5, dose response (AID 720591);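 note: desuccinylation of succinyl peptide AMC substrate read as fluorescence after trypsin release; potency of inhibitors that lower fluorescence and may act on trypsin instead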
Sequence of NAD-dependent protein deacylase sirtuin-5, mitochondrial (Q9NXA8 whole entry): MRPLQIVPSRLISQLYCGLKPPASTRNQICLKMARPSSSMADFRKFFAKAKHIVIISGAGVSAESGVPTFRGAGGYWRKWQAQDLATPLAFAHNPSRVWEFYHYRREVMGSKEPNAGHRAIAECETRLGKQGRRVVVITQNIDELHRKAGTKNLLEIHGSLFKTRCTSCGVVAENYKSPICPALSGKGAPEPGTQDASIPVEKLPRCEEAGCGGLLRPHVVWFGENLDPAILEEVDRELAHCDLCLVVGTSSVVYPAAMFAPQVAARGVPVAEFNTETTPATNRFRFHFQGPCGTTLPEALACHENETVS

[20] = molecular target: FAD-linked sulfhydryl oxidase ALR (Homo sapiens, UniProt P55789); assay: ALR-catalysed DTT oxidation blockers – biochemical, H2O2 detection, luminescence, cherry-pick, dose response (AID 493248)
Sequence of FAD-linked sulfhydryl oxidase ALR (P55789 whole entry): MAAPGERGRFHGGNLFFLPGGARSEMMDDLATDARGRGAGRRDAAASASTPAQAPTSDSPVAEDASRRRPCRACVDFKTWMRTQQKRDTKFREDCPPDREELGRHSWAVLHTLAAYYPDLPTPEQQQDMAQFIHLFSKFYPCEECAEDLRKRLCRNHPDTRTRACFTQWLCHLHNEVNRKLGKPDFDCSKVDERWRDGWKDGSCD

Sequence of Glucose-6-phosphate 1-dehydrogenase (P11413 whole entry): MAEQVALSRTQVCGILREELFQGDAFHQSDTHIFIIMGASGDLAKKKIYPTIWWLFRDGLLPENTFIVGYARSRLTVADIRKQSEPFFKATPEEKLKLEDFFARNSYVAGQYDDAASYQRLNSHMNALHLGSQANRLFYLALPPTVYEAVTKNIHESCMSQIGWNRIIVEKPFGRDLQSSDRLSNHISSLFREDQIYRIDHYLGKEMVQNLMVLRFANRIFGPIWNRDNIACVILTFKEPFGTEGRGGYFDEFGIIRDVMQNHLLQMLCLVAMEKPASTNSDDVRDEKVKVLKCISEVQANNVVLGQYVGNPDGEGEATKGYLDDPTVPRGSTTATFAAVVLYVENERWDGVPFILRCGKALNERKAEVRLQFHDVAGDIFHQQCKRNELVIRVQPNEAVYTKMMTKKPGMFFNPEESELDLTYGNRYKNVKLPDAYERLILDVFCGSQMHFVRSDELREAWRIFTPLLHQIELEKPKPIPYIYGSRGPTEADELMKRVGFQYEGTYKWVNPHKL

Cc1ccccc1-n1c(-c2ccc3ccccc3n2)n[nH]c1=S
IC50 [1]: > 80 µM (inactive)

CN(C)/C=C/c1c(C#N)c(=O)ncn1Cc1ccccc1
IC50 (Coagulation factor XII): > 50 µM (inactive)

CC1=NN(C(N)=S)C(=O)C1N=Nc1ccc([N+](=O)[O-])cc1 (stereo not drawn)
EC50 (Beta-galactosidase [2]): > 40 µM (inactive)
IC50 [3]: 35.3 µM (not active)

FC(F)(F)Oc1ccc(NC(S)=NCc2ccccc2)cc1
IC50 (Phospholipase A2): 12.2 µM (active)
IC50 (Cysteine protease ATG4B): 25.4 µM (inactive)

Oc1nc(Nc2ccccc2)nc(N2CCCC2)n1
EC50 (cells [4]): > 29.9 µM (inactive)
IC50 (cells [5]): > 29.9 µM (inactive)

O=C(c1cccc(S(=O)(=O)N2CCN(c3ccccc3)CC2)c1)N1CCCC(C(F)(F)F)C1 (stereo not drawn)
AC50 [6]: 0.475 µM (active)
AC50 [7]: 6.01 µM (active)
AC50 [8]: 2.68 µM (active)
IC50 (Protein Wnt-3a): 41.8 µM (inactive)
AC50 [9]: 37.3 µM (active)

O=C(O)c1ccc(/C=C2\SC(=S)N(Nc3ccccc3)C2=O)cc1
AC50 (INS1): 3.85 µM (active)
IC50 (Coagulation factor XII): > 50 µM (inactive)
IC50 (Genome polyprotein): 58 µM (active)

CN(C)c1ccnc(N(Cc2ccccc2)Cc2ccccc2)c1C#N
IC50 [10]: 0.509 µM (active)

COC(=O)c1ccc(/C=C(\C#N)C(=O)NC(C)c2ccccc2)cc1 (stereo not drawn)
EC50 [11]: 47.1 µM (active)
AC50 [12]: 10.7 µM (active)

O=C(O)/C=C/C(=O)NCc1csc2ccccc12
EC50 (cells [4]): > 29.9 µM (inactive)
IC50 (cells [5]): > 29.9 µM (inactive)

COc1cccc(CN(C)C(=O)c2cc(COc3ccc4ncccc4c3)on2)c1
AC50 [6]: 2.1 µM (active)
AC50 (INS1): 5.13 µM (active)
IC50 [13]: 59.9 µM (inactive)
AC50 [8]: 1.49 µM (active)
IC50 (Protein Wnt-3a): 1.02 µM (active)
AC50 [9]: 3.93 µM (active)

CC(C)C[C@H](NC(=O)c1[nH]cnc1C(=O)NCc1ccc(CNC(=O)OC(C)(C)C)cc1)C(=O)OCc1ccccc1
IC50 [10]: 2.3 µM (active)

O=[N+]([O-])c1ccc(/C=C/C2=NN(c3ccccc3)C(c3ccco3)C2)o1 (stereo not drawn)
EC50 [14]: 18.5 µM (active)
EC50 [15]: 0.427 µM (active)
IC50 (Beta-galactosidase [16]): 41 µM (inactive)
IC50 (Protein skinhead-1): > 100 µM (inactive)

CC(C)CCn1c(=O)c2ccccc2n2c(=S)[nH]nc12
IC50 (Large T antigen): 14.7 µM (active)
IC50 [17]: 1.19 µM (active)

COc1ccc(C(C)=O)cc1CSc1nc2ccccc2c(=O)n1-c1cccc(C)c1
EC50 [11]: 28.9 µM (active)
IC50 (Phospholipase A2): 0.321 µM (active)
EC50 [18]: 29.1 µM (active)
IC50 (Cysteine protease ATG4B): 0.502 µM (active)

Cc1c(C(C)C)c(=O)n(-c2ccc(S(=O)(=O)NC3CCCCC3)cc2)n1C
AC50 [6]: 1.76 µM (active)
AC50 [8]: 1.06 µM (active)
IC50 (Protein Wnt-3a): 2.91 µM (active)
AC50 [9]: 3.93 µM (active)

Cc1cc(C(=O)Nc2nc(C)c(C(=O)N(C)C)s2)ccc1[N+](=O)[O-]
IC50 (Prothrombin): > 50 µM (not active)
IC50 (Coagulation factor XII): > 50 µM (inactive)

Cc1c(-c2ccc(OCCN3CCOCC3)cc2)c(=O)oc2ccc3ccccc3c12
AC50 [19]: > 30 µM (inactive)

Sc1nnc(Nc2ccccc2)s1
AC50 [20]: 1.91 µM (active)
IC50 [17]: 0.892 µM (active)

CC[n+]1c(C=C2C=CN(C)C=C2)ccc2cc(C)ccc21
AC50 [12]: 1.74 µM (active)
